The target in one test is T1, MDM2 (Homo sapiens, UniProt Q00987).
T1 construct: made in house
Nature of the test: Inhibition test of MDM2-P53 (GST-MDM2, Biotin-P53, Anti-GST-Tb, SA-XL665). The class given is binding. The gist of the method: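 Binding was measured by TR-FRET with GST-MDM2 at 4 nM final in PBS with 0.1% BSA, 5 mM DTT and 1 mM AEBSF. Compounds were tested as twelve-point 5-fold dilutions and incubated with the detection mix for 90 min at 25 °C with shaking before plate-reader reading and curve fitting.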

In test [1] the test system is human osteosarcoma cell line SJSA-1. Nature of the test: Inhibition of proliferation of human osteosarcoma cell line SJSA-1 (DAPI staining, In Cell Analyzer). The conditions noted are these: Homo sapiens, SJSA-1, 72 h, read-out: IC50 (nM), inhibitory activity on proliferation of human osteosarcoma cell line SJSA-1, SJSA-1, incubated 72 h.

The structures appear in SMILES notation.

T1 sequence (Q00987 whole entry): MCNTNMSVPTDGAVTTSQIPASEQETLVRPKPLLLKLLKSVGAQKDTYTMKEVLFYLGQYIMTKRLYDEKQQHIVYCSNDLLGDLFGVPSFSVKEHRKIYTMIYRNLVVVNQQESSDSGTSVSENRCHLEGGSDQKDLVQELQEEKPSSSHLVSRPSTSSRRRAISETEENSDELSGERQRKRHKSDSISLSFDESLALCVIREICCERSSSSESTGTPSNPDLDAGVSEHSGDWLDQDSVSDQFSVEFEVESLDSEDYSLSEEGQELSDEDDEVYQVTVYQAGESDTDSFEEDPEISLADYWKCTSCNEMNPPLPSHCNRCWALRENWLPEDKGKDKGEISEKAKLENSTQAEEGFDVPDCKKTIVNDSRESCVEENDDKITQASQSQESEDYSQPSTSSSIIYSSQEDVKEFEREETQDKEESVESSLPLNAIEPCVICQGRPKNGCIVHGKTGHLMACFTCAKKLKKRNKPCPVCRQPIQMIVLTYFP

In the case of `COc1ccc(C(C)C)c(-c2nc3c(n2C(C)C)[C@@]2(C(=O)Nc4cc(Cl)ccc42)N(c2cc(Cl)ccc2C)C3=O)c1` [Example S-19, (S)-6-chloro-5′-(5-chloro-2-methylphenyl)-3′-isopropyl-2′-(2-isopropyl-5-methoxyphenyl)-3′H-spiro[dihydroindole-3,4′-pyrrolo[3,4-d]imidazole]-2,6′(5′H)-dione], the IC50 on MDM2 turned out to be 34.6 nM; in test [1], 352 nM.

With `COc1ncc(-c2nc3c(n2C(C)C)[C@@]2(C(=O)Nc4cc(Cl)ccc42)N(c2ccc(C)c(Cl)c2)C3=O)c(OC)n1` [Example S-20, (S)-6-chloro-5′-(3-chloro-4-methylphenyl)-2′-(2,4-dimethoxypyrimidin-5-yl)-3′-isopropyl-3′H-spiro[dihydroindole-3,4′-pyrrolo[3,4-d]imidazole]-2,6′(5′H)-dione], the IC50 against MDM2 was 4.39 nM; in test [1] it was 48.1 nM.

With `CNC(=O)c1ccc(OC)c(-c2nc3c(n2C(C)C)[C@@]2(C(=O)Nc4cc(Cl)ccc42)N(c2cc(Cl)ccc2C)C3=O)c1` [Example S-21, (S)-3-(6-chloro-5′-(5-chloro-2-methylphenyl)-3′-isopropyl-2,6′-dioxo-5′,6′-dihydro-3′H-spiro[dihydroindole-3,4′-pyrrolo[3,4-d]imidazole]-2′-yl)-4-methoxy-N-methylbenzamide], the IC50 is 1.34 nM at MDM2 and 62.2 nM in test [1].

Turning to `COc1ccc(C(=O)N(C)C)cc1-c1nc2c(n1C(C)C)[C@@]1(C(=O)Nc3cc(Cl)ccc31)N(c1cc(Cl)ccc1C)C2=O` [Example S-22, (S)-3-(6-chloro-5′-(5-chloro-2-methylphenyl)-3′-isopropyl-2,6′-dioxo-5′,6′-dihydro-3′H-spiro[dihydroindole-3,4′-pyrrolo[3,4-d]imidazole]-2′-yl)-4-methoxy-N,N-dimethylbenzamide], the IC50 on MDM2 is 1.1 nM; in test [1], 7.46 nM.

As for `COc1cc(C)ccc1-c1nc2c(n1C(C)C)[C@@]1(C(=O)Nc3cc(Cl)ccc31)N(c1cc(Cl)ccc1C)C2=O` [Example S-24, (S)-6-chloro-5′-(5-chloro-2-methylphenyl)-3′-isopropyl-2′-(2-methoxy-4-methylphenyl)-3′H-spiro[dihydroindole-3,4′-pyrrolo[3,4-d]imidazole]-2,6′(5′H)-dione], the IC50 on MDM2 worked out at 4.4 nM; in test [1] it was 4.17 nM.

For the compound `CNc1ccc(-c2nc3c(n2C(C)C)[C@@]2(C(=O)Nc4cc(Cl)ccc42)N(c2cc(Cl)ccc2C)C3=O)c(OC)c1` [Example S-25, (S)-6-chloro-5′-(5-chloro-2-methylphenyl)-3′-isopropyl-2′-(2-methoxy-4-(methylamine)phenyl)-3′H-spiro[dihydroindole-3,4′-pyrrolo[3,4-d]imidazole]-2,6′(5′H)-dione], the values for the IC50 (at MDM2; in test [1]) were 2.52 nM and 8.83 nM, respectively.

In the case of `CCn1c(-c2cnc(OC)nc2OC)nc2c1[C@@]1(C(=O)Nc3cc(Cl)ccc31)N(c1cc(Cl)ccc1C)C2=O` [Example S-26, (S)-6-chloro-5′-(5-chloro-2-methylphenyl)-2′-(2,4-dimethoxypyrimidin-5-yl)-3′-ethyl-3′H-spiro[dihydroindole-3,4′-pyrrolo[3,4-d]imidazole]-2,6′(5′H)-dione], the IC50 came out at 2.37 nM against MDM2 and 22.2 nM in test [1].

Take `COc1ncncc1-c1nc2c(n1C(C)C)[C@@]1(C(=O)Nc3cc(Cl)ccc31)N(c1cc(Cl)ccc1C)C2=O` [Example S-27, (S)-6-chloro-5′-(5-chloro-2-methylphenyl)-3′-isopropyl-2′-(4-methoxypyrimidin-5-yl)-3′H-spiro[dihydroindole-3,4′-pyrrolo[3,4-d]imidazole]-2,6′(5′H)-dione]: the IC50 against MDM2 was found to be 3.45 nM; in test [1], 119 nM.

With `COc1ncc(-c2nc3c(n2C2CC2)[C@@]2(C(=O)Nc4cc(Cl)ccc42)N(c2cc(Cl)ccc2C)C3=O)c(OC)n1` [Example S-28, (S)-6-chloro-5′-(5-chloro-2-methylphenyl)-3′-cyclopropane-2′-(2,4-dimethoxypyrimidin-5-yl)-3′H-spiro[dihydroindole-3,4′-pyrrolo[3,4-d]imidazole]-2,6′(5′H)-dione], the figures for the IC50 (on MDM2; in test [1]) were 54.3 nM and 1290 nM, respectively.

Take `COc1ccc(C(N)=O)cc1-c1nc2c(n1C(C)C)[C@@]1(C(=O)Nc3cc(Cl)ccc31)N(c1cc(Cl)ccc1C)C2=O` [Example S-29, (S)-3-(6-chloro-5′-(5-chloro-2-methylphenyl)-3′-isopropyl-2,6′-dioxo-5′,6′-dihydro-3′H-spiro[dihydroindole-3,4′-pyrrolo[3,4-d]imidazole]-2′-yl)-4-methoxybenzamide]: the IC50 on MDM2 was 1.01 nM; in test [1] it was 196 nM.

For `Cc1ccc(Cl)cc1N1C(=O)c2nc(-c3ccccc3OC(F)F)n(C(C)C)c2[C@@]12C(=O)Nc1cc(Cl)ccc12` [Example S-30, (S)-6-chloro-5′-(5-chloro-2-methylphenyl)-2′-(2-(difluoromethoxy)phenyl)-3′-isopropyl-3′H-spiro[dihydroindole-3,4′-pyrrolo[3,4-d]imidazole]-2,6′(5′H)-dione], the values for the IC50 (at MDM2; in test [1]) were 3.31 nM and 58.1 nM, respectively.

As to `Cc1ccc(Cl)cc1N1C(=O)c2nc(-c3ccccc3OC(F)(F)F)n(C(C)C)c2[C@@]12C(=O)Nc1cc(Cl)ccc12` [Example S-31, (S)-6-chloro-5′-(5-chloro-2-methylphenyl)-3′-isopropyl-2′-(2-(trifluoromethoxy)phenyl)-3′H-spiro[dihydroindole-3,4′-pyrrolo[3,4-d]imidazole]-2,6′(5′H)-dione], the IC50 came out at 60.1 nM on MDM2 and 1580 nM in test [1].

For the compound `CCc1ccc(-c2nc3c(n2C(C)C)[C@@]2(C(=O)Nc4cc(Cl)ccc42)N(c2cc(Cl)ccc2C)C3=O)c(OC)c1` [Example S-33, (S)-6-chloro-5′-(5-chloro-2-methylphenyl)-2′-(4-ethyl-2-methoxyphenyl)-3′-isopropyl-3′H-spiro[dihydroindole-3,4′-pyrrolo[3,4-d]imidazole]-2,6′(5′H)-dione], the results for the IC50 (on MDM2; in test [1]) were 2.47 nM and 9.7 nM, respectively.

For `Cc1ccc(Cl)cc1N1C(=O)c2nc(-c3ccccc3OC(C)C)n(C(C)C)c2[C@@]12C(=O)Nc1cc(Cl)ccc12` [Example S-34, (S)-6-chloro-5′-(5-chloro-2-methylphenyl)-2′-(2-isopropoxyphenyl)-3′-isopropyl-3′H-spiro[dihydroindole-3,4′-pyrrolo[3,4-d]imidazole]-2,6′(5′H)-dione], the IC50 at MDM2 was found to be 139 nM; in test [1], 619 nM.

As to `CCOc1ccccc1-c1nc2c(n1C(C)C)[C@@]1(C(=O)Nc3cc(Cl)ccc31)N(c1cc(Cl)ccc1C)C2=O` [Example S-35, (S)-6-chloro-5′-(5-chloro-2-methylphenyl)-2′-(2-ethoxyphenyl)-3′-isopropyl-3′H-spiro[dihydroindole-3,4′-pyrrolo[3,4-d]imidazole]-2,6′(5′H)-dione], the IC50 worked out at 23.4 nM against MDM2 and 258 nM in test [1].

Turning to `CCc1ccc(OC)c(-c2nc3c(n2C(C)C)[C@@]2(C(=O)Nc4cc(Cl)ccc42)N(c2cc(Cl)ccc2C)C3=O)c1` [Example S-37, (S)-6-chloro-5′-(5-chloro-2-methylphenyl)-2′-(5-ethyl-2-methoxyphenyl)-3′-isopropyl-3′H-spiro[dihydroindole-3,4′-pyrrolo[3,4-d]imidazole]-2,6′(5′H)-dione], the IC50 against MDM2 stood at 22 nM; in test [1], 14.2 nM.

The values above are taken from patent US11339171B2, “MDM2 inhibitors” (Gan & Lee Pharmaceuticals, priority 2017, dated 2022).
